# Test system: post-menopausal women
# Experiment: Weekly severity of moderate to severe VMS, dose-finding study
# Assay type: in vivo
# Description: To determine the Minimum Effective Dose (MED), firstly the selection criteria required that patients presented at least 7 moderate to severe VMS/day or at least 50 moderate to severe VMS/week in the week preceding randomization. Secondly, a placebo group was included in a double-blind fashion. Thirdly, the total patient number was such that statistical significance could be obtained between separate arms of the study. Fourthly, the absolute change from baseline in weekly frequency of moderate to severe VMS was taken into account. An analysis of covariance (ANCOVA) was performed based on the untransformed change in weekly frequency of moderate to severe VMS from baseline. Finally, the change in severity from baseline was evaluated. For this, the Severity Scoring System of VMS was documented by the subjects as follows: • a score of Mild (1) for a sensation of heat without sweating; • a score of Moderate (2) for a sensation of heat with sweating/the subject is able to continue activity; and • a score of Severe (3) for a sensation of heat with sweating/which causes cessation of activity.
# In addition, a severity score of zero was attributed to the patients who have experienced a 100% VMS relief during a given week.
# From these score records, the severity at baseline was calculated by taking into account only moderate and severe VMS, such that the total number of moderate VMS during the 7 days of the baseline week was multiplied by 2 and added to the total number of severe VMS during the 7 days of the baseline week multiplied by 3. This total was then divided by the total number of moderate and severe VMS during the baseline week.
# The severity at weeks 4 and 12 was calculated using the following formula for each of these weeks: • the number of mild VMS during 7 days multiplied by 1; • the number of moderate VMS during 7 days multiplied by 2; • the number of severe VMS during 7 days multiplied by 3. and adding the 3 resulting numbers together before dividing this total by the total number of mild, moderate and severe VMS during the 7 days of the week.
# This method was used to generate the data included in Example 1 further below, under section A. b) “VMS Severity”.
# In order to better analyse the data recorded in this study, treatment groups have been compared using an ANCOVA (analysis of covariance) with respect to the change in severity of moderate to severe VMS from baseline to mild, moderate and severe VMS at week 4 and week 12 for each active treatment versus placebo. For women who experienced 100% VMS relief at week 4 and/or week 12, a value of zero was attributed. The ANCOVA model includes treatment (“trt1”) as a fixed effect and baseline (“base”) as a covariate. • b) Covariate significance
smiles,measurement,setting,value
"C[C@]12CC[C@@H]3c4ccc(O)cc4CC[C@H]3[C@@H]1[C@@H](O)[C@@H](O)[C@@H]2O [E4, 1,3,5 (10)-estratrien-3,15alpha,16alpha,17beta-tetrol]","Difference with placebo, LS adjusted mean, relative change in weekly severity of moderate to severe VMS","5 mg E4 vs placebo, week 12",0.1149
same,LS adjusted mean change from baseline in weekly severity of moderate to severe VMS,"10 mg E4, week 4",−0.4825
same,LS adjusted mean relative change from baseline in weekly severity of moderate to severe VMS,"10 mg E4, week 4",−0.2016
same,LS adjusted mean relative change from baseline in weekly severity of moderate to severe VMS,"10 mg E4, week 12",−0.2862
same,Mean change from baseline in weekly severity of moderate to severe VMS,"10 mg E4 QD per os, week 1",−0.2028
same,"Relative change (% from baseline) in weekly severity of moderate to severe VMS, mean","10 mg E4 QD per os, week 1",−8%
same,Mean change from baseline in weekly severity of moderate to severe VMS,"10 mg E4 QD per os, week 2",−0.3007
same,"Relative change (% from baseline) in weekly severity of moderate to severe VMS, mean","10 mg E4 QD per os, week 2",−13%
same,Mean change from baseline in weekly severity of moderate to severe VMS,"10 mg E4 QD per os, week 3",−0.3983
same,"Relative change (% from baseline) in weekly severity of moderate to severe VMS, mean","10 mg E4 QD per os, week 3",−17%
same,Mean change from baseline in weekly severity of moderate to severe VMS,"10 mg E4 QD per os, week 4",−0.4842
same,"Relative change (% from baseline) in weekly severity of moderate to severe VMS, mean","10 mg E4 QD per os, week 4",−20%
same,Mean change from baseline in weekly severity of moderate to severe VMS,"10 mg E4 QD per os, week 5",−0.5107
same,"Relative change (% from baseline) in weekly severity of moderate to severe VMS, mean","10 mg E4 QD per os, week 5",−21%
same,Mean change from baseline in weekly severity of moderate to severe VMS,"10 mg E4 QD per os, week 6",−0.6086
same,"Relative change (% from baseline) in weekly severity of moderate to severe VMS, mean","10 mg E4 QD per os, week 6",−26%
same,Mean change from baseline in weekly severity of moderate to severe VMS,"10 mg E4 QD per os, week 7",−0.643
same,"Relative change (% from baseline) in weekly severity of moderate to severe VMS, mean","10 mg E4 QD per os, week 7",−27%
same,Mean change from baseline in weekly severity of moderate to severe VMS,"10 mg E4 QD per os, week 8",−0.6644
same,"Relative change (% from baseline) in weekly severity of moderate to severe VMS, mean","10 mg E4 QD per os, week 8",−28%
same,Mean change from baseline in weekly severity of moderate to severe VMS,"10 mg E4 QD per os, week 9",−0.6864
same,"Relative change (% from baseline) in weekly severity of moderate to severe VMS, mean","10 mg E4 QD per os, week 9",−28%
same,Mean change from baseline in weekly severity of moderate to severe VMS,"10 mg E4 QD per os, week 10",−0.709
same,"Relative change (% from baseline) in weekly severity of moderate to severe VMS, mean","10 mg E4 QD per os, week 10",−29%
same,Mean change from baseline in weekly severity of moderate to severe VMS,"10 mg E4 QD per os, week 11",−0.666
same,"Relative change (% from baseline) in weekly severity of moderate to severe VMS, mean","10 mg E4 QD per os, week 11",−25%
same,Mean change from baseline in weekly severity of moderate to severe VMS,"10 mg E4 QD per os, week 12",−0.6941
same,"Relative change (% from baseline) in weekly severity of moderate to severe VMS, mean","10 mg E4 QD per os, week 12",−28%
same,"Difference with placebo, LS adjusted mean, absolute change in weekly severity of moderate to severe VMS","10 mg E4 vs placebo, week 4",−0.1547
same,"Difference with placebo, LS adjusted mean, relative change in weekly severity of moderate to severe VMS","10 mg E4 vs placebo, week 4",−0.06058
same,"Difference with placebo, LS adjusted mean, absolute change in weekly severity of moderate to severe VMS","10 mg E4 vs placebo, week 12",−0.03512
same,"Difference with placebo, LS adjusted mean, relative change in weekly severity of moderate to severe VMS","10 mg E4 vs placebo, week 12",−0.006415
same,LS adjusted mean change from baseline in weekly severity of moderate to severe VMS,"15 mg E4, week 4",−0.5888
same,LS adjusted mean relative change from baseline in weekly severity of moderate to severe VMS,"15 mg E4, week 4",−0.2427
same,LS adjusted mean relative change from baseline in weekly severity of moderate to severe VMS,"15 mg E4, week 12",−0.4375
same,Mean change from baseline in weekly severity of moderate to severe VMS,"15 mg E4 QD per os, week 1",−0.072
same,"Relative change (% from baseline) in weekly severity of moderate to severe VMS, mean","15 mg E4 QD per os, week 1",−3%
same,Mean change from baseline in weekly severity of moderate to severe VMS,"15 mg E4 QD per os, week 2",−0.2853
same,"Relative change (% from baseline) in weekly severity of moderate to severe VMS, mean","15 mg E4 QD per os, week 2",−12%
same,Mean change from baseline in weekly severity of moderate to severe VMS,"15 mg E4 QD per os, week 3",−0.4842
same,"Relative change (% from baseline) in weekly severity of moderate to severe VMS, mean","15 mg E4 QD per os, week 3",−20%
same,Mean change from baseline in weekly severity of moderate to severe VMS,"15 mg E4 QD per os, week 4",−0.5897
same,"Relative change (% from baseline) in weekly severity of moderate to severe VMS, mean","15 mg E4 QD per os, week 4",−24%
same,Mean change from baseline in weekly severity of moderate to severe VMS,"15 mg E4 QD per os, week 5",−0.7432
same,"Relative change (% from baseline) in weekly severity of moderate to severe VMS, mean","15 mg E4 QD per os, week 5",−31%
same,Mean change from baseline in weekly severity of moderate to severe VMS,"15 mg E4 QD per os, week 6",−0.7035
same,"Relative change (% from baseline) in weekly severity of moderate to severe VMS, mean","15 mg E4 QD per os, week 6",−30%
same,Mean change from baseline in weekly severity of moderate to severe VMS,"15 mg E4 QD per os, week 7",−0.8112
same,"Relative change (% from baseline) in weekly severity of moderate to severe VMS, mean","15 mg E4 QD per os, week 7",−34%
same,Mean change from baseline in weekly severity of moderate to severe VMS,"15 mg E4 QD per os, week 8",−0.8854
same,"Relative change (% from baseline) in weekly severity of moderate to severe VMS, mean","15 mg E4 QD per os, week 8",−37%
same,Mean change from baseline in weekly severity of moderate to severe VMS,"15 mg E4 QD per os, week 9",−0.9092
same,"Relative change (% from baseline) in weekly severity of moderate to severe VMS, mean","15 mg E4 QD per os, week 9",−38%
same,Mean change from baseline in weekly severity of moderate to severe VMS,"15 mg E4 QD per os, week 10",−0.9628
same,"Relative change (% from baseline) in weekly severity of moderate to severe VMS, mean","15 mg E4 QD per os, week 10",−40%
same,Mean change from baseline in weekly severity of moderate to severe VMS,"15 mg E4 QD per os, week 11",−1.0123
same,"Relative change (% from baseline) in weekly severity of moderate to severe VMS, mean","15 mg E4 QD per os, week 11",−42%
same,Mean change from baseline in weekly severity of moderate to severe VMS,"15 mg E4 QD per os, week 12",−1.0425
same,"Relative change (% from baseline) in weekly severity of moderate to severe VMS, mean","15 mg E4 QD per os, week 12",−44%
same,"Difference with placebo, LS adjusted mean, absolute change in weekly severity of moderate to severe VMS","15 mg E4 vs placebo, week 4",−0.261
same,"Difference with placebo, LS adjusted mean, relative change in weekly severity of moderate to severe VMS","15 mg E4 vs placebo, week 4",−0.1017
same,"Difference with placebo, LS adjusted mean, absolute change in weekly severity of moderate to severe VMS","15 mg E4 vs placebo, week 12",−0.3838
same,"Difference with placebo, LS adjusted mean, relative change in weekly severity of moderate to severe VMS","15 mg E4 vs placebo, week 12",−0.1577
same,Reduction in the severity of moderate to severe VMS when compared to baseline,15 mg daily dose,over 40%
